This note sets out measurements from PMC12491518, “Fabrication of cytotoxic mirror image nanopores” (Nature Communications, 2025).

A short description of assay [1]: Single-channel electrical recordings in planar lipid bilayers. It counts as biochemical. The note with it: Supplementary Table 1. The procedure: High-resolution electrical recordings for the single-channel characterization were conducted in planar lipid bilayers made up of 1,2-diphytanoyl-sn-glycero-3-phosphocholine (DPhPC, Avanti Polar Lipids)[23],[27],[51]. The lipid bilayer is formed across a polytetrafluoroethylene (Teflon) aperture of ~100 µm in diameter. Teflon is placed between the two sides of the Delrin bilayer chamber, partitioning it into cis and trans compartments (600 µL each). For constructing a solvent-free lipid bilayer, the aperture is made lipophilic by pre-painting both sides with hexadecane in n-pentane (1 μL, 5 mg mL^−1)[51]. After ~10 min, the chambers were filled with buffered electrolytes (1 M KCl, 10 mM HEPES, pH 7.4), and DPhPC in n-pentane (1 μL, 5 mg mL^−1) was added. After ~15 min incubation, the lipid bilayer is formed by raising and lowering the electrolyte solution, bringing the two lipid monolayers together at the aperture. The cis compartment was connected to the ground electrode, while the trans compartment was connected to the working live electrode. Subsequently, DpPorA or DpPorA DE peptides solubilized in 0.1% DDM (1 µL, 100 µg mL^−1) were consistently introduced into the cis compartment of the bilayer. The peptide pore insertion was facilitated by mixing the bilayer chamber and applying a high voltage of +200 mV. The single-channel electrical properties of the peptide pores and analyte-induced pore blockages were examined in 1 M KCl, 10 mM HEPES, pH 7.4. Ion selectivity was assessed under asymmetric salt conditions with a KCl concentration gradient across the planar lipid bilayer (0.15 M cis/1 M trans) (SI text)[27]. The ion current was acquired and amplified using an Axopatch 200B amplifier, digitized with Digidata 1550B digitizer, and recorded using the pClamp 11 acquisition software (Molecular Devices, CA). The current signals were filtered with a 2 kHz low-pass filter frequency and 10 kHz sampling frequency, or with 10 kHz low-pass filter frequency and 50 kHz sampling frequency, in line with the requirement.

Assay [2] deals with MDA-MB-231 cells. It counts as cell-based, human. Particulars: 10 µM and 20 µM, 24 h, MTT, n = 3. The procedure:
The MDA-MB-231 cell line was obtained from ATCC (Kind gift from Dr. Annapoorni Rangarajan, Indian Institute of Science, Bengaluru, Karnataka, India) and tested negative for mycoplasma contamination. Cells were cultured in DMEM (Gibco, 11965-092) supplemented with 10% FBS (Thermo Fisher Scientific, 10270-106) and Penicillin (100 Units/mL) /Streptomycin (100 µg/mL) (Thermo Fisher Scientific, 15070-063). […] Cell proliferation was measured 24 h after the addition of Peptide/ DDM using MTT assay (3-(4,5-dimethylthiazol-2-yl)-2,5-diphenyltetrazolium bromide, M6494, Thermo Fischer Scientific). […] The purple-colored formazan crystals were dissolved by adding 100 µL DMSO (D5879, Sigma Aldrich), and the absorbance at 570 nm was measured using a plate reader (EMax plus microplate reader). […]
Immunofluorescence (IF) images were analyzed to assess the impact of different treatments on cell membrane integrity. […] We evaluated a t least 100 cells for each group - Control, DDM-treated cells and peptide-treated cells- with independent analysis done by a student blinded to the groups' identity . […]
indicating a loss of cell membrane integrity. This categorization provided a clear and systematic approach to quantify the effects of various treatments on cell membrane integrity. […]

Where no end group is shown, it is not given here.

Take “MIDQITEIFGQLGTFLGGFGNIFKGLKAVIATIVKWTAAK [LpPorA DE]”: in assay [1], the “experimental conductance Gexp” value turned out to be 3.8 ± 0.2 nS.
Turning to “MIDQITEIFGQLGTFLGGFGNIFKGLKDVIETIVKWTAAK [LpPorA]”, the “experimental conductance Gexp” value in assay [1] was 3.0 ± 0.2 nS. In assay [2], the “change in cell viability” value is recorded as “no significant change in viability”.
